According to patent US11793849B2, “Method of Chinese herbal medicine extract used for treating multiple diseases caused by drug resistant bacteria infection” (priority 2016, dated 2023):
Read-outs that look alike come from different tables or passages of the source.

Test system: MDRAB
Assay: Checkerboard assay (combined-use MIC, FIC)
Assay type: cell-based, Acinetobacter baumannii
Conditions: for FIC, all strains / MIC50 of the antibiotic after combined use / MIC90 of the antibiotic after combined use / reduction of the antibiotic's MIC50 vs single use / reduction of the antibiotic's MIC90 vs single use / share of strains with FIC ≤ 0.5: 20 MDRABs; for MIC: Acinetobacter baumannii, read-out: single-use MIC
Experimental: Test methods of the sensibilization effects of the test product to similar antibiotics: it is operated by referring to a checkerboard assay recommended by NCCLS.
The checkerboard assay is performed in a 96-pore sterile culture plate.
Calculation of a Fractional Inhibitory Concentration (FIC): FIC=S20b combined-use MIC/S20b single-use MIC+antibiotic combined-use MIC/antibiotic single-use MIC. By calculating the FIC, the combined antibacterial interaction between the EA and the antibiotic is evaluated, with synergistic effect for FIC≤0.5, additive effect for 0.5<FIC≤1, indifferent effect for 1<FIC≤2 and antagonistic effect for FIC>2. According to a sterile growth pore, the optimum concentration ratio between the EA and the antibiotic is founded out. At last, the effect of the EA to strengthen the efficacy of the antibiotic is evaluated.

[1] = antibiotic with 60% ethanol extract
[2] = antibiotic with 95% ethanol extract
[3] = antibiotic with EA (10% ethanol extract)
[4] = antibiotic with EA (water extract)

MIC50 of the antibiotic after combined use [1]: 8 µg/mL
MIC90 of the antibiotic after combined use [1]: 16 µg/mL
reduction of the antibiotic's MIC50 vs single use [1]: 75%
reduction of the antibiotic's MIC90 vs single use [1]: 50%
MIC50 of the antibiotic after combined use [2]: 8 µg/mL
MIC90 of the antibiotic after combined use [2]: 16 µg/mL
reduction of the antibiotic's MIC50 vs single use [2]: 75%
reduction of the antibiotic's MIC90 vs single use [2]: 50%
MIC50 of the antibiotic after combined use [3]: 8 µg/mL
MIC90 of the antibiotic after combined use [3]: 16 µg/mL
reduction of the antibiotic's MIC50 vs single use [3]: 75%
reduction of the antibiotic's MIC90 vs single use [3]: 50%
MIC50 of the antibiotic after combined use [4]: 8 µg/mL
MIC90 of the antibiotic after combined use [4]: 16 µg/mL
reduction of the antibiotic's MIC50 vs single use [4]: 75%
reduction of the antibiotic's MIC90 vs single use [4]: 50%
MIC (strain A1, EA=60% ethanol extract): 1 µg/mL
MIC (strain A1, EA=95% ethanol extract): 1 µg/mL
MIC (strain A2, EA=60% ethanol extract): 32 µg/mL
MIC (strain A2, EA=95% ethanol extract): 32 µg/mL
MIC (strain A3, EA=60% ethanol extract): 32 µg/mL
MIC (strain A3, EA=95% ethanol extract): 32 µg/mL
MIC (strain A4, EA=60% ethanol extract): 8 µg/mL
MIC (strain A4, EA=95% ethanol extract): 8 µg/mL
MIC (strain A5 (printed AS in tables A43, A45), EA=95% ethanol extract): 32 µg/mL
MIC (strain A5, EA=60% ethanol extract): 32 µg/mL
MIC (strain A6, EA=60% ethanol extract): 32 µg/mL
MIC (strain A6, EA=95% ethanol extract): 32 µg/mL
MIC (strain A7, EA=60% ethanol extract): 32 µg/mL
MIC (strain A7, EA=95% ethanol extract): 32 µg/mL
MIC (strain A8, EA=60% ethanol extract): 32 µg/mL
MIC (strain A8, EA=95% ethanol extract): 32 µg/mL
MIC (strain A9, EA=60% ethanol extract): 32 µg/mL
MIC (strain A9, EA=95% ethanol extract): 32 µg/mL
MIC (strain A10, EA=60% ethanol extract): 16 µg/mL
MIC (strain A10, EA=95% ethanol extract): 16 µg/mL
MIC (strain A11, EA=60% ethanol extract): 32 µg/mL
MIC (strain A11, EA=95% ethanol extract): 32 µg/mL
MIC (strain A12, EA=60% ethanol extract): 32 µg/mL
MIC (strain A12, EA=95% ethanol extract): 32 µg/mL
MIC (strain A13, EA=60% ethanol extract): 32 µg/mL
MIC (strain A13, EA=95% ethanol extract): 32 µg/mL
MIC (strain A14, EA=60% ethanol extract): 32 µg/mL
MIC (strain A14, EA=95% ethanol extract): 32 µg/mL
MIC (strain A15, EA=60% ethanol extract): 32 µg/mL
MIC (strain A15, EA=95% ethanol extract): 32 µg/mL
MIC (strain A16, EA=60% ethanol extract): 32 µg/mL
MIC (strain A16, EA=95% ethanol extract): 32 µg/mL
MIC (strain A17, EA=60% ethanol extract): 16 µg/mL
MIC (strain A17, EA=95% ethanol extract): 16 µg/mL
MIC (strain A18, EA=60% ethanol extract): 32 µg/mL
MIC (strain A18, EA=95% ethanol extract): 32 µg/mL
MIC (strain A19, EA=60% ethanol extract): 32 µg/mL
MIC (strain A19, EA=95% ethanol extract): 32 µg/mL
MIC (strain A20, EA=60% ethanol extract): 32 µg/mL
MIC (strain A20, EA=95% ethanol extract): 32 µg/mL
combined-use MIC (strain A1, EA (10% ethanol extract) with IMP): 0.5 µg/mL
combined-use MIC (strain A1, EA (60% ethanol extract) + IMP combined): 0.5 µg/mL
combined-use MIC (strain A1, EA (95% ethanol extract) + IMP combined): 0.5 µg/mL
combined-use MIC (strain A1, EA (water extract) with IMP): 0.5 µg/mL
combined-use MIC (strain A2, EA (10% ethanol extract) with IMP): 8 µg/mL
combined-use MIC (strain A2, EA (60% ethanol extract) + IMP combined): 8 µg/mL
combined-use MIC (strain A2, EA (95% ethanol extract) + IMP combined): 8 µg/mL
combined-use MIC (strain A2, EA (water extract) with IMP): 16 µg/mL
combined-use MIC (strain A3, EA (10% ethanol extract) with IMP): 8 µg/mL
combined-use MIC (strain A3, EA (60% ethanol extract) + IMP combined): 8 µg/mL
combined-use MIC (strain A3, EA (95% ethanol extract) + IMP combined): 8 µg/mL
combined-use MIC (strain A3, EA (water extract) with IMP): 16 µg/mL
combined-use MIC (strain A4, EA (10% ethanol extract) with IMP): 8 µg/mL
combined-use MIC (strain A4, EA (60% ethanol extract) + IMP combined): 0.5 µg/mL
combined-use MIC (strain A4, EA (95% ethanol extract) + IMP combined): 0.5 µg/mL
combined-use MIC (strain A4, EA (water extract) with IMP): 1 µg/mL
combined-use MIC (strain A5, EA (10% ethanol extract) with IMP): 8 µg/mL
combined-use MIC (strain A5, EA (60% ethanol extract) + IMP combined): 8 µg/mL
combined-use MIC (strain A5, EA (water extract) with IMP): 16 µg/mL
combined-use MIC (strain A6, EA (10% ethanol extract) with IMP): 4 µg/mL
combined-use MIC (strain A6, EA (60% ethanol extract) + IMP combined): 16 µg/mL
combined-use MIC (strain A6, EA (95% ethanol extract) + IMP combined): 16 µg/mL
combined-use MIC (strain A6, EA (water extract) with IMP): 16 µg/mL
combined-use MIC (strain A7, EA (10% ethanol extract) with IMP): 8 µg/mL
combined-use MIC (strain A7, EA (60% ethanol extract) + IMP combined): 16 µg/mL
combined-use MIC (strain A7, EA (95% ethanol extract) + IMP combined): 16 µg/mL
combined-use MIC (strain A7, EA (water extract) with IMP): 16 µg/mL
combined-use MIC (strain A8, EA (10% ethanol extract) with IMP): 16 µg/mL
combined-use MIC (strain A8, EA (60% ethanol extract) + IMP combined): 16 µg/mL
combined-use MIC (strain A8, EA (95% ethanol extract) + IMP combined): 16 µg/mL
combined-use MIC (strain A8, EA (water extract) with IMP): 16 µg/mL
combined-use MIC (strain A9, EA (10% ethanol extract) with IMP): 8 µg/mL
combined-use MIC (strain A9, EA (60% ethanol extract) + IMP combined): 4 µg/mL
combined-use MIC (strain A9, EA (95% ethanol extract) + IMP combined): 4 µg/mL
combined-use MIC (strain A9, EA (water extract) with IMP): 16 µg/mL
combined-use MIC (strain A10, EA (10% ethanol extract) with IMP): 8 µg/mL
combined-use MIC (strain A10, EA (60% ethanol extract) + IMP combined): 8 µg/mL
combined-use MIC (strain A10, EA (95% ethanol extract) + IMP combined): 8 µg/mL
combined-use MIC (strain A10, EA (water extract) with IMP): 8 µg/mL
combined-use MIC (strain A11, EA (10% ethanol extract) with IMP): 8 µg/mL
combined-use MIC (strain A11, EA (60% ethanol extract) + IMP combined): 4 µg/mL
combined-use MIC (strain A11, EA (95% ethanol extract) + IMP combined): 4 µg/mL
combined-use MIC (strain A11, EA (water extract) with IMP): 8 µg/mL
combined-use MIC (strain A12, EA (10% ethanol extract) with IMP): 8 µg/mL
combined-use MIC (strain A12, EA (60% ethanol extract) + IMP combined): 8 µg/mL
combined-use MIC (strain A12, EA (95% ethanol extract) + IMP combined): 8 µg/mL
combined-use MIC (strain A12, EA (water extract) with IMP): 16 µg/mL
combined-use MIC (strain A13, EA (10% ethanol extract) with IMP): 8 µg/mL
combined-use MIC (strain A13, EA (60% ethanol extract) + IMP combined): 8 µg/mL
combined-use MIC (strain A13, EA (95% ethanol extract) + IMP combined): 8 µg/mL
combined-use MIC (strain A13, EA (water extract) with IMP): 16 µg/mL
combined-use MIC (strain A14, EA (10% ethanol extract) with IMP): 16 µg/mL
combined-use MIC (strain A14, EA (60% ethanol extract) + IMP combined): 4 µg/mL
combined-use MIC (strain A14, EA (95% ethanol extract) + IMP combined): 8 µg/mL
combined-use MIC (strain A14, EA (water extract) with IMP): 4 µg/mL
combined-use MIC (strain A15, EA (10% ethanol extract) with IMP): 8 µg/mL
combined-use MIC (strain A15, EA (60% ethanol extract) + IMP combined): 4 µg/mL
combined-use MIC (strain A15, EA (95% ethanol extract) + IMP combined): 8 µg/mL
combined-use MIC (strain A15, EA (water extract) with IMP): 4 µg/mL
combined-use MIC (strain A16, EA (10% ethanol extract) with IMP): 8 µg/mL
combined-use MIC (strain A16, EA (60% ethanol extract) + IMP combined): 8 µg/mL
combined-use MIC (strain A16, EA (95% ethanol extract) + IMP combined): 8 µg/mL
combined-use MIC (strain A16, EA (water extract) with IMP): 8 µg/mL
combined-use MIC (strain A17, EA (10% ethanol extract) with IMP): 4 µg/mL
combined-use MIC (strain A17, EA (60% ethanol extract) + IMP combined): 2 µg/mL
combined-use MIC (strain A17, EA (95% ethanol extract) + IMP combined): 2 µg/mL
combined-use MIC (strain A17, EA (water extract) with IMP): 2 µg/mL
combined-use MIC (strain A18, EA (10% ethanol extract) with IMP): 16 µg/mL
combined-use MIC (strain A18, EA (60% ethanol extract) + IMP combined): 8 µg/mL
combined-use MIC (strain A18, EA (95% ethanol extract) + IMP combined): 8 µg/mL
combined-use MIC (strain A18, EA (water extract) with IMP): 8 µg/mL
combined-use MIC (strain A19, EA (10% ethanol extract) with IMP): 8 µg/mL
combined-use MIC (strain A19, EA (60% ethanol extract) + IMP combined): 8 µg/mL
combined-use MIC (strain A19, EA (95% ethanol extract) + IMP combined): 8 µg/mL
combined-use MIC (strain A19, EA (water extract) with IMP): 8 µg/mL
combined-use MIC (strain A20, EA (10% ethanol extract) with IMP): 8 µg/mL
combined-use MIC (strain A20, EA (60% ethanol extract) + IMP combined): 8 µg/mL
combined-use MIC (strain A20, EA (95% ethanol extract) + IMP combined): 8 µg/mL
combined-use MIC (strain A20, EA (water extract) with IMP): 8 µg/mL
combined-use MIC (strain AS, EA (95% ethanol extract) + IMP combined): 8 µg/mL
Compound: C[C@@H](O)[C@H]1C(=O)N2C(C(=O)O)=C(SCCN=CN)C[C@H]12 [IMP, imipenem]
FIC, all strains [1]: ≤ 1
share of strains with FIC ≤ 0.5 [1]: 70%
FIC, all strains [2]: ≤ 1
share of strains with FIC ≤ 0.5 [2]: 55%
FIC, all strains [3]: ≤ 1
share of strains with FIC ≤ 0.5 [3]: 45%
FIC, all strains [4]: ≤ 1
share of strains with FIC ≤ 0.5 [4]: 35%
